Measured values from the NIST ThermoML archive (doi:10.1021/acs.jced.5b00367).
Values joined by “and” are separate entries in the source; they are usually repeats but may differ in a detail not shown here. Equal values may be shown once.

Test: wn = mass fraction of the nth substance listed
Details: 101 kPa, Liquid, Alternating current cell with electrodes

CCCCCCCCCCCCCCCC[N+](CC)(CC)CCCCCCCCCCCCCCCC.[Br-] [diethyldihexadecylammonium bromide] + O
w1 = 0.01
Details | electrical conductivity [S/m]
279.15 K | 0.0018
279.25 K | 0.00186
279.45 K | 0.00186
279.55 K | 0.00187
279.65 K | 0.00187
279.85 K | 0.00188
280.15 K | 0.00189
280.35 K | 0.00189
280.55 K | 0.0019
280.65 K | 0.0019
281.05 K | 0.0019
281.15 K | 0.00191
281.55 K | 0.00191
281.85 K | 0.00192
282.05 K | 0.00192
282.25 K | 0.00193
282.75 K | 0.00194
283.05 K | 0.00195
283.15 K | 0.00195
283.45 K | 0.00195
283.65 K | 0.00195
283.85 K | 0.00195
283.95 K | 0.00195
284.15 K | 0.00195
284.55 K | 0.00197
284.75 K | 0.00197
285.25 K | 0.00197
285.45 K | 0.00198
285.55 K | 0.00198
285.75 K | 0.00198
285.85 K | 0.00198
286.15 K | 0.00198
286.25 K | 0.00198
286.55 K | 0.00198
286.65 K | 0.00198
289.15 K | 0.002
290.15 K | 0.00201
290.85 K | 0.00202
291.45 K | 0.00204
291.75 K | 0.00205
292.05 K | 0.00206
292.95 K | 0.00207
295.55 K | 0.00209
296.65 K | 0.0021
297.65 K | 0.00211
298.65 K | 0.00212
299.45 K | 0.00213
300.75 K | 0.00214
301.25 K | 0.00215
302.35 K | 0.00216
303.05 K | 0.00217
303.65 K | 0.00219
304.05 K | 0.0022
305.25 K | 0.00226
305.55 K | 0.00229
305.95 K | 0.00235
306.45 K | 0.00239
306.95 K | 0.00247
307.35 K | 0.00254
307.65 K | 0.00264
307.95 K | 0.0027
308.15 K | 0.00278
308.45 K | 0.00294
308.75 K | 0.00294
308.95 K | 0.00295
309.55 K | 0.00296
310.25 K | 0.00297
311.35 K | 0.00299
312.45 K | 0.00304
312.65 K | 0.00305
313.55 K | 0.00305
313.95 K | 0.00308
314.15 K | 0.00314
316.55 K | 0.00319
317.25 K | 0.00323
318.65 K | 0.00322
318.75 K | 0.00325
319.15 K | 0.00326
320.75 K | 0.00328
320.95 K | 0.00331
321.05 K | 0.00333
322.05 K | 0.0034
322.15 K | 0.0034
323.15 K | 0.00347

CCCCCCCCCCCC[N+](C)(C)C.[Br-] [dodecyltrimethylammonium bromide] + O
w2 = 0.01
Details | electrical conductivity
279.15 K | 0.186 S/m
279.25 K | 0.186 S/m
279.35 K | 0.186 S/m
279.45 K | 0.186 S/m
279.55 K | 0.186 S/m
279.65 K | 0.186 S/m
279.85 K | 0.186 S/m
279.95 K | 0.186 S/m
280.05 K | 0.186 S/m
280.15 K | 0.186 S/m
280.25 K | 0.186 S/m
280.35 K | 0.186 S/m
280.45 K | 0.186 S/m
280.55 K | 0.186 S/m
280.65 K | 0.186 S/m
280.75 K | 0.185 S/m
280.85 K | 0.185 S/m
280.95 K | 0.185 S/m
281.05 K | 0.185 S/m
281.15 K | 0.185 S/m
281.25 K | 0.185 S/m
281.35 K | 0.185 S/m
281.45 K | 0.185 S/m
281.55 K | 0.185 S/m
281.65 K | 0.185 S/m
281.85 K | 0.185 S/m
281.95 K | 0.185 S/m
282.05 K | 0.185 S/m
282.15 K | 0.185 S/m
282.25 K | 0.185 S/m
282.35 K | 0.184 S/m
282.45 K | 0.184 S/m
282.55 K | 0.184 S/m
282.65 K | 0.184 S/m
282.75 K | 0.184 S/m
282.85 K | 0.184 S/m
282.95 K | 0.184 S/m
283.05 K | 0.184 S/m
283.15 K | 0.184 S/m
283.25 K | 0.184 S/m
283.35 K | 0.184 S/m
283.45 K | 0.184 S/m
283.55 K | 0.184 S/m
283.65 K | 0.184 S/m
283.75 K | 0.184 S/m
283.85 K | 0.184 S/m
283.95 K | 0.184 S/m
284.05 K | 0.183 S/m and 0.184 S/m
284.15 K | 0.184 S/m
284.25 K | 0.183 S/m
284.35 K | 0.183 S/m
284.45 K | 0.183 S/m
284.55 K | 0.183 S/m
284.65 K | 0.183 S/m
284.75 K | 0.183 S/m
284.85 K | 0.183 S/m
284.95 K | 0.183 S/m
285.05 K | 0.183 S/m
285.15 K | 0.183 S/m
288.05 K | 0.182 S/m
288.15 K | 0.182 S/m
288.25 K | 0.182 S/m
288.35 K | 0.182 S/m
288.45 K | 0.182 S/m
288.55 K | 0.182 S/m
288.65 K | 0.182 S/m
288.75 K | 0.182 S/m
288.85 K | 0.182 S/m
288.95 K | 0.182 S/m
289.85 K | 0.183 S/m
289.95 K | 0.183 S/m
290.05 K | 0.183 S/m
290.15 K | 0.183 S/m
290.25 K | 0.183 S/m
290.35 K | 0.183 S/m
290.45 K | 0.183 S/m
290.55 K | 0.183 S/m
290.65 K | 0.183 S/m
290.75 K | 0.183 S/m
290.85 K | 0.183 S/m
290.95 K | 0.183 S/m
291.05 K | 0.183 S/m
291.15 K | 0.183 S/m
291.25 K | 0.183 S/m
291.35 K | 0.183 S/m
291.45 K | 0.183 S/m
291.55 K | 0.183 S/m
291.65 K | 0.183 S/m
291.75 K | 0.183 S/m
291.85 K | 0.183 S/m
292.15 K | 0.183 S/m
292.25 K | 0.183 S/m
292.65 K | 0.183 S/m
292.75 K | 0.183 S/m
292.85 K | 0.183 S/m
292.95 K | 0.184 S/m
293.05 K | 0.184 S/m
293.15 K | 0.184 S/m
293.25 K | 0.184 S/m
294.25 K | 0.184 S/m
294.35 K | 0.184 S/m
294.45 K | 0.184 S/m
294.55 K | 0.184 S/m
294.75 K | 0.184 S/m
294.85 K | 0.185 S/m
294.95 K | 0.185 S/m
295.15 K | 0.185 S/m
295.25 K | 0.185 S/m
295.45 K | 0.185 S/m
295.65 K | 0.185 S/m
295.75 K | 0.185 S/m
296.05 K | 0.185 S/m
296.15 K | 0.185 S/m
296.55 K | 0.185 S/m
296.85 K | 0.186 S/m
297.05 K | 0.186 S/m
297.25 K | 0.186 S/m
297.45 K | 0.186 S/m
297.65 K | 0.186 S/m
297.85 K | 0.186 S/m
298.15 K | 0.186 S/m
298.65 K | 0.187 S/m
298.85 K | 0.187 S/m
299.05 K | 0.187 S/m
299.25 K | 0.188 S/m
299.55 K | 0.188 S/m
299.75 K | 0.188 S/m
299.85 K | 0.188 S/m
300.05 K | 0.188 S/m
300.25 K | 0.188 S/m
300.45 K | 0.188 S/m
300.75 K | 0.189 S/m
301.05 K | 0.189 S/m
301.55 K | 0.189 S/m
301.75 K | 0.189 S/m
301.95 K | 0.19 S/m
302.25 K | 0.19 S/m
302.55 K | 0.19 S/m
302.75 K | 0.19 S/m
302.95 K | 0.191 S/m
303.25 K | 0.191 S/m
303.65 K | 0.191 S/m
303.85 K | 0.191 S/m
304.15 K | 0.192 S/m
305.45 K | 0.193 S/m
306.15 K | 0.194 S/m
306.45 K | 0.194 S/m
306.75 K | 0.194 S/m
307.05 K | 0.195 S/m
307.85 K | 0.195 S/m
308.15 K | 0.196 S/m
308.45 K | 0.196 S/m
308.75 K | 0.196 S/m
309.35 K | 0.197 S/m
309.55 K | 0.197 S/m
309.85 K | 0.198 S/m
310.05 K | 0.198 S/m
310.35 K | 0.199 S/m
310.65 K | 0.199 S/m
310.95 K | 0.199 S/m
311.35 K | 0.199 S/m
